Results on 24 substances are retold here after US20140228543A1, “MODIFIED AND DERIVATIZED ß-GLUCAN COMPOUNDS, COMPOSITIONS, AND METHODS” (Biothera, Inc., priority 2011, published 2014).

The subject of assay [1] is human neutrophils. Description: β-glucan binding on neutrophils (BfD IV staining, flow cytometry). In kind it is cell-based. The conditions noted are these: 200 μg/mL hexose concentration, 2 hr, 37° C., 10% serum. The protocol: This ability was evaluated by comparing the levels of neutrophil-bound parent versus the derivatives of β-glucans detected by BfD IV, a monoclonal antibody (MAb) specific for β-1,3/1,6 glucans. […] Table 2 lists the fold change of MFI values of BfD IV staining on neutrophils treated with each of the parent and derivatized glucans over that of PBS control-treated cells.
Enriched neutrophils were resuspended at 1×10^6 cells/mL in RPMI 1640 supplemented with 10% serum. The parent or the derivatized glucans at 200, μg/mL hexose concentration were added to neutrophils and incubated in a 37° C., 5% CO2 humidified incubator for 2 hr. After incubation, cells were washed twice with FACS buffer (HBSS supplemented with 1% FBS and 0.1% sodium azide) to remove any unbound β-glucan, and subsequently treated with Fc block. Post Fc block step, cells were stained with the BfD IV Ab for 30 min at 4° C. and washed twice with cold FACS buffer. Cells were then incubated with FITC-conjugated F(ab′)2 goat anti-mouse IgM for 30 min at 4° C. and washed once with cold FACS buffer before fixing with 1% paraformaldehyde. Events were collected on a LSRII flow cytometer and analysis was performed using FlowJo software.
Table 2 summarizes the fold change of MFI values of BfD IV staining on neutrophils treated with each of the parent, or derivatized β-glucans, over that of PBS control-treated cells.

Assay [2] relates to human neutrophils. Put plainly: iC3b deposition on neutrophils (flow cytometry). The settings on record: 200 μg/mL hexose concentration, 2 hr, 37° C., 10% serum. The class given is cell-based. The protocol:
This ability was evaluated by comparing the levels of iC3b complement fragment detected on human neutrophils with the derivative versus parent β-glucan-bound.
Enriched neutrophils were resuspended at 1×10^6 cells/mL in RPMI 1640 supplemented with 10% serum. The parent or the derivatized glucans at 200, μg/mL hexose concentration were added to neutrophils and incubated in a 37° C., 5% C02 humidified incubator for 2 hr. After incubation, cells were washed twice with FACS buffer (HBSS supplemented with 1% FBS and 0.1% sodium azide) to remove any unbound β-glucan, stained with a neo-epitope specific anti-iC3b Ab and PE-conjugated goat anti-mouse IgG and subsequently analyzed by flow cytometry.
Table 1 below lists the fold change of mean fluorescence intensity (MFI) values of iC3b staining on neutrophils treated with each of the parent or derivatized glucans over that of PBS control-treated cells.
(In flow cytometry, cells or beads pass a laser one at a time.)

Consider “Lactose Propyl Amine MMW Yeast Glucan Analog [BT-1244]”, for which, in assay [1], the “Approximate Fold Increase/Decrease in MFI over Parent Compound (BfD IV)” value (“Approximate Fold Increase/Decrease … (BfD IV)” for short) is 1.0 fold and the “MFI(BID IV) compound/MFI(BID IV) PBS” value turned out to be 4.0 ± 1.9. In assay [2], the “Approximate Fold Increase/Decrease in MFI over Parent Compound (iC3b)” value (“Approximate Fold Increase/Decrease … (iC3b)” for short) was found to be 1.5 fold and the “MFI(ic3b) compound/MFI(ic3b) PBS” value is reported as 3.0 ± 0.1.
For “Mannose Propyl Amine LMW Yeast Glucan Analog [BT-1278]” the same measures were 0.9 fold, 1.3, 0.9 fold and 1.0.
For “Propyl Amine MMW Yeast Glucan Analog [BT-1267]”, in assay [1], the “Approximate Fold Increase/Decrease … (BfD IV)” value is reported as 5.6 fold and the “MFI(BID IV) compound/MFI(BID IV) PBS” value is recorded as 23.6 ± 16.4. Moreover, in assay [2], the “Approximate Fold Increase/Decrease … (iC3b)” value is given as 4.0 fold and the “MFI(ic3b) compound/MFI(ic3b) PBS” value came out at 8.0 ± 3.9.
Consider Benzyl Amine Laminarin Analog [BT-1234], for which, in assay [1], the “Approximate Fold Increase/Decrease … (BfD IV)” value is reported as 70.0 fold and the “MFI(BID IV) compound/MFI(BID IV) PBS” value is on record as 77. Further, in assay [2], the “Approximate Fold Increase/Decrease … (iC3b)” value amounted to 3.9 fold and the “MFI(ic3b) compound/MFI(ic3b) PBS” value is on record as 5.1.
Turning to “Laminarin [Laminarin (parent), reference compound]”, the “MFI(BID IV) compound/MFI(BID IV) PBS” value in assay [1] was 1.1. For the same substance, in assay [2], the “MFI(ic3b) compound/MFI(ic3b) PBS” value turned out to be 1.3.
In the case of “Benzyl Amine Reducing End MMW Yeast Glucan Analog [BT-1275]”, in assay [1], the “Approximate Fold Increase/Decrease … (BfD IV)” value is reported as 0.6 fold and the “MFI(BID IV) compound/MFI(BID IV) PBS” value is reported as 2.4 ± 1.2. Moreover, in assay [2], the “Approximate Fold Increase/Decrease … (iC3b)” value came to 0.9 fold and the “MFI(ic3b) compound/MFI(ic3b) PBS” value was 1.7 ± 0.1.
With “Dextran [Dextran (control), reference compound]”, the “MFI(BID IV) compound/MFI(BID IV) PBS” value in assay [1] came out at 1.0. The “MFI(ic3b) compound/MFI(ic3b) PBS” value in assay [2] stood at 1.1 ± 0.2.
Consider “Benzyl Amine LMW Yeast Glucan Analog [BT-1273]”, for which, in assay [1], the “Approximate Fold Increase/Decrease … (BfD IV)” value was 11.3 fold and the “MFI(BID IV) compound/MFI(BID IV) PBS” value was 17.0. Moreover, in assay [2], the “Approximate Fold Increase/Decrease … (iC3b)” value is given as 2.2 fold and the “MFI(ic3b) compound/MFI(ic3b) PBS” value was found to be 2.4.
“Benzyl Amine Scleroglucan Analog [BT-1272]”: in assay [1], the “Approximate Fold Increase/Decrease … (BfD IV)” value is on record as 1.7 fold and the “MFI(BID IV) compound/MFI(BID IV) PBS” value is reported as 3.2. In addition, in assay [2], the “Approximate Fold Increase/Decrease … (iC3b)” value was found to be 2.4 fold and the “MFI(ic3b) compound/MFI(ic3b) PBS” value worked out at 3.9.
For “Galactose Propyl Amine Dextran Analog [BT-1286]”, in that order: 1.0 fold, 1.0, 0.9 fold and 1.0.
Consider “Mannose Propyl Amine Laminarin Analog [BT-1281]”, for which, in assay [1], the “Approximate Fold Increase/Decrease … (BfD IV)” value was 1.1 fold and the “MFI(BID IV) compound/MFI(BID IV) PBS” value is 1.2. For the same substance, in assay [2], the “Approximate Fold Increase/Decrease … (iC3b)” value is on record as 0.8 fold and the “MFI(ic3b) compound/MFI(ic3b) PBS” value is reported as 1.1.
As for “Scleroglucan [Scleroglucan (parent), reference compound]”, in assay [1], the “MFI(BID IV) compound/MFI(BID IV) PBS” value is 1.9. In assay [2], the “MFI(ic3b) compound/MFI(ic3b) PBS” value is recorded as 1.6.
Turning to Propyl Amine Dextran Analog [BT-1266], in assay [1], the “Approximate Fold Increase/Decrease … (BfD IV)” value amounted to 1.1 fold and the “MFI(BID IV) compound/MFI(BID IV) PBS” value was 1.1. In assay [2], the “Approximate Fold Increase/Decrease … (iC3b)” value is recorded as 0.9 fold and the “MFI(ic3b) compound/MFI(ic3b) PBS” value was determined as 1.0.
As to “Mannose Propyl Amine Scleroglucan Analog [BT-1290]”, in assay [1], the “Approximate Fold Increase/Decrease … (BfD IV)” value was 0.7 fold and the “MFI(BID IV) compound/MFI(BID IV) PBS” value was found to be 1.4. In assay [2], the “Approximate Fold Increase/Decrease … (iC3b)” value is 0.7 fold and the “MFI(ic3b) compound/MFI(ic3b) PBS” value is 1.1.
With “Mannose Propyl Amine MMW Yeast Glucan Analog [BT-1243]”, in assay [1], the “Approximate Fold Increase/Decrease … (BfD IV)” value is on record as 4.7 fold and the “MFI(BID IV) compound/MFI(BID IV) PBS” value is on record as 19.7 ± 13.4. Besides, in assay [2], the “Approximate Fold Increase/Decrease … (iC3b)” value worked out at 4.3 fold and the “MFI(ic3b) compound/MFI(ic3b) PBS” value worked out at 8.6 ± 0.3.
“Galactose Propyl Amine MMW Yeast Glucan Analog [BT-1245]”: in assay [1], the “Approximate Fold Increase/Decrease … (BfD IV)” value is 1.6 fold and the “MFI(BID IV) compound/MFI(BID IV) PBS” value was 6.6 ± 3.78. In assay [2], the “Approximate Fold Increase/Decrease … (iC3b)” value is given as 2.3 fold and the “MFI(ic3b) compound/MFI(ic3b) PBS” value was found to be 4.5 ± 1.2.
On to “Tryptophan MMW Yeast Glucan Analog [BT-1220]”, for which, in assay [1], the “Approximate Fold Increase/Decrease … (BfD IV)” value is recorded as 4.8 fold and the “MFI(BID IV) compound/MFI(BID IV) PBS” value was 20.3. Moreover, in assay [2], the “Approximate Fold Increase/Decrease … (iC3b)” value is 5.1 fold and the “MFI(ic3b) compound/MFI(ic3b) PBS” value is recorded as 10.1.
For “Maltose Propyl Amine MMW Yeast Glucan Analog [BT-1248]” the same measures were 1.1 fold, 4.7 ± 3.8, 1.8 fold and 3.5 ± 0.4.
On to “3-Aminopropyl Imidazole MMW Yeast Glucan Analog [BT-1304]”, for which, in assay [1], the “Approximate Fold Increase/Decrease … (BfD IV)” value is 0.5 fold and the “MFI(BID IV) compound/MFI(BID IV) PBS” value came out at 2.1. In assay [2], the “Approximate Fold Increase/Decrease … (iC3b)” value is recorded as 0.6 fold and the “MFI(ic3b) compound/MFI(ic3b) PBS” value is listed as 1.2.
Turning to “S-(+)-2-Phenyl Glycinol MMW Yeast Glucan Analog [BT-1300]”, in assay [1], the “Approximate Fold Increase/Decrease … (BfD IV)” value is 0.6 fold and the “MFI(BID IV) compound/MFI(BID IV) PBS” value came out at 2.5. In assay [2], the “Approximate Fold Increase/Decrease … (iC3b)” value is listed as 0.8 fold and the “MFI(ic3b) compound/MFI(ic3b) PBS” value was 1.6.
As for “Propyl Amine LMW Yeast Glucan Analog [BT-1276]”, in assay [1], the “Approximate Fold Increase/Decrease … (BfD IV)” value is on record as 1.0 fold and the “MFI(BID IV) compound/MFI(BID IV) PBS” value was 1.5 ± 0.1. For the same substance, in assay [2], the “Approximate Fold Increase/Decrease … (iC3b)” value was 1.1 fold and the “MFI(ic3b) compound/MFI(ic3b) PBS” value was 1.2 ± 0.1.
In the case of “Tyrosine MMW Yeast Glucan Analog [BT-1297]”, in assay [1], the “Approximate Fold Increase/Decrease … (BfD IV)” value stood at 0.5 fold and the “MFI(BID IV) compound/MFI(BID IV) PBS” value is 2.2. For the same substance, in assay [2], the “Approximate Fold Increase/Decrease … (iC3b)” value is listed as 1.2 fold and the “MFI(ic3b) compound/MFI(ic3b) PBS” value is listed as 2.3.
On to “Galactose Propyl Amine LMW Yeast Glucan Analog [BT-1277]”, for which, in assay [1], the “Approximate Fold Increase/Decrease … (BfD IV)” value came out at 0.9 fold and the “MFI(BID IV) compound/MFI(BID IV) PBS” value stood at 1.3. Also, in assay [2], the “Approximate Fold Increase/Decrease … (iC3b)” value turned out to be 0.9 fold and the “MFI(ic3b) compound/MFI(ic3b) PBS” value turned out to be 1.0.
Regarding “Mannose Propyl Amine Dextran Analog [BT-1287]”, in assay [1], the “Approximate Fold Increase/Decrease … (BfD IV)” value worked out at 1.0 fold and the “MFI(BID IV) compound/MFI(BID IV) PBS” value came to 1.0. In addition, in assay [2], the “Approximate Fold Increase/Decrease … (iC3b)” value is on record as 0.9 fold and the “MFI(ic3b) compound/MFI(ic3b) PBS” value came to 1.0.
